According to patent US4762840A, “Pyrimido[2,1-b]benzothiazoles having antiallergic activity” (Roussel Uclaf, priority 1984, dated 1988):

Tested on: lungs
Assay: Antigen-induced elevation of lung perfusion pressure (isolated perfused sensitized lung, ovalbumen)
Set-up: species or system guinea pig (Dunkin Hartley)
Details: Cavia porcellus; perfused lungs of ovalbumen-sensitized guinea pigs; compound in krebs fluid 30 minutes prior to second antigen dose (15 μg ovalbumen); at least four lungs per concentration; read-out: IC50 (inhibition of antigen induced broncho-constriction)
Procedure: Antigen-induced elevation of lung perfusion pressure
Male Dunkin Hartley guinea pigs (Porcellus) weighing between 450-700 g were used (four per test concentration) and were housed in cages. The animals were sensitized by two weekly exposures to 1% W/V aerosol ovalbumen. The animals were anaesthetized with 2.5 mg/kg diazepam i.p. and 1 ml/kg Hyponorm i.m. Following anaethesia, the animals were exsanguinated by severing both carotid arteries and the chest was opened and the lungs removed, split into two at the carina and both cannulated via the main lobar bronchus and connected to a perfusion system. The lungs were perfused with aerated krebs fluid (95% O2 :5% CO2) at 37° C. and 5 μg in 0.1 ml Ovalbumen was injected through an injection port proximal to each lung. Elevation of perfusion pressure by the antigen was recorded and sixty minutes later, 15 μg of ovalbumen were administered. The test compounds were added to the krebs fluid reservoir thirty minutes prior to the second antigen dose. For each weekly batch of animals used, control measurements were made without treatment (n=10 ). The second antigen response was expressed as a percentage of the first. For each test, at least four lungs from four different animals were used per concentration. The percentage inhibition of antigen induced broncho-constriction was calculated.

| SMILES | IC50 |
| --- | --- |
| CCOC(=O)C(C)c1ccc2c(c1)sc1nc(=O)ccn12 (stereo not drawn) [Example 2, Ethyl 2-oxo-2H-pyrimido[2,1-b]benzothiazole-8-α-methylacetate] | > 100 µM |
| CCOC(=O)Cc1ccc2c(c1)sc1nc(=O)cc(-c3ccccc3)n12 [Example 3, Ethyl 2-oxo-4-phenyl-2H-pyrimido[2,1-b]benzothiazole-8-acetate] | 1 µM |
| COC(=O)Cc1ccc2c(c1)sc1nc(=O)cc(-c3ccccc3)n12 [Example 4, Methyl 2-oxo-4-phenyl-2H-pyrimido[2,1-b]benzothiazole-8-acetate] | 10 µM |
| CCCOC(=O)Cc1ccc2c(c1)sc1nc(=O)cc(-c3ccccc3)n12 [Example 5, n-Propyl 2-oxo-4-phenyl-2H-pyrimido[2,1-b]benzothiazole-8-acetate] | < 10 µM |
| CC(C)OC(=O)Cc1ccc2c(c1)sc1nc(=O)cc(-c3ccccc3)n12 [Example 6, Isopropyl 2-oxo-4-phenyl-2H-pyrimido[2,1-b]benzothiazole-8-acetate] | 1 to 10 µM |
| CCCCOC(=O)Cc1ccc2c(c1)sc1nc(=O)cc(-c3ccccc3)n12 [Example 7, n-Butyl 2-oxo-4-phenyl-2H-pyrimido[2,1-b]benzothiazole-8-acetate] | > 10 µM |
| CCOC(=O)Cc1ccc2c(c1)sc1nc(=O)cc(-c3ccc(OC)cc3)n12 [Example 9, Ethyl 4-(4-methoxyphenyl)-2-oxo-2H-pyrimido[2,1-b]benzothiazole-8-acetate] | 1 µM |
| CCOC(=O)Cc1ccc2c(c1)sc1nc(=O)cc(-c3ccc([N+](=O)[O-])cc3)n12 [Example 10, Ethyl 4-(4-nitrophenyl)-2-oxo-2H-pyrimido[2,1-b]benzothiazole-8-acetate] | 10 to 100 µM |
| CCOC(=O)Cc1ccc2c(c1)sc1nc(=O)cc(-c3ccc(Cl)cc3)n12 [Example 11, Ethyl 4-(4-chlorophenyl)-2-oxo-2H-pyrimido[2,1-b]benzothiazole-8-acetate] | 10 µM |
| CCOC(=O)Cc1ccc2c(c1)sc1nc(=O)cc(-c3ccccc3Cl)n12 [Example 12, Ethyl 4-(2-chlorophenyl)-2-oxo-2H-pyrimido[2,1-b]benzothiazole-8-acetate] | 0.1 to 1 µM |
| CCOC(=O)Cc1ccc2c(c1)sc1nc(=O)cc(-c3ccc(C)cc3)n12 [Example 13, Ethyl 4-(4-methylphenyl)-2-oxo-2H-pyrimido[2,1-b]benzothiazole-8-acetate] | < 1 µM |
| CCOC(=O)Cc1ccc2c(c1)sc1nc(=O)cc(-c3cccc(Cl)c3)n12 [Example 14, Ethyl 4-(3-chlorophenyl)-2-oxo-2H-pyrimido[2,1-b]benzothiazole-8-acetate] | ≤ 1 µM |
| CCOC(=O)Cc1ccc2c(c1)sc1nc(=O)cc(C)n12 [Example 15, Ethyl 4-methyl-2-oxo-2H-pyrimido[2,1-b]benzothiazole-8-acetate] | 10 to 100 µM |
| CCOC(=O)Cc1ccc2c(c1)sc1nc(=O)cc(CC)n12 [Example 16, Ethyl 4-ethyl-2-oxo-2H-pyrimido[2,1-b]benzothiazole-8-acetate] | 100 µM |
| CCCc1cc(=O)nc2sc3cc(CC(=O)OCC)ccc3n12 [Example 17, Ethyl 2-oxo-4-n-propyl-2H-pyrimido[2,1-b]benzothiazole-8-acetate] | 1 to 10 µM |
| CCCCc1cc(=O)nc2sc3cc(CC(=O)OCC)ccc3n12 [Example 18, Ethyl 4-n-butyl-2-oxo-2H-pyrimido[2,1-b]benzothiazole-8-acetate] | 10 µM |
| CCOC(=O)C(C)c1ccc2c(c1)sc1nc(=O)cc(-c3ccccc3)n12 (stereo not drawn) [Example 20, Ethyl α-methyl-2-oxo-4-phenyl-2H-pyrimido[2,1-b]benzothiazole-8-acetate] | 0.1 µM |

| SMILES | IC50 |
| --- | --- |
| CCOC(=O)C(C)c1ccc2c(c1)sc1nc(=O)cc(-c3ccc(Cl)cc3)n12 (stereo not drawn) [Example 22, Ethyl α-methyl 4-(4-chlorophenyl)-2-oxo-2H-pyrimido[2,1-b]benzothiazole-8-acetate] | 0.1 to 1 µM |
| CCOC(=O)C(C)c1ccc2c(c1)sc1nc(=O)cc(-c3cccc(Cl)c3)n12 (stereo not drawn) [Example 23, Ethyl α-methyl 4-(3-chlorophenyl) 2-oxo-2H-pyrimido[2,1-b]benzothiazole-8-acetate] | ≤ 1 µM |
| CCCc1cc(=O)nc2sc3cc(C(C)C(=O)OCC)ccc3n12 (stereo not drawn) [Example 24, Ethyl α-methyl-2-oxo-4-n-propyl-2H-pyrimido[2,1-b]benzothiazole-8-acetate] | > 10 µM |
| CCOC(=O)Cc1ccc2c(c1)sc1nc(=O)cc(C(C)C)n12 [Example 25, Ethyl 4-isopropyl-2-oxo-2H-pyrimido[2,1-b]benzothiazole-8-acetate] | 10 to 100 µM |
| CCOC(=O)C(C)c1ccc2c(c1)sc1nc(=O)cc(Cc3ccccc3)n12 (stereo not drawn) [Example 27, Ethyl α-methyl-4-benzyl-2-oxo-2H-pyrimido[2,1-b]benzothiazole-8-acetate] | 10 to 100 µM |
| CCOC(=O)C(C)c1ccc2c(c1)sc1nc(=O)cc(C(C)C)n12 (stereo not drawn) [Example 28, Ethyl α-methyl-4-isopropyl-2-oxo-2H-pyrimido[2,1-b]benzothiazole-8-acetate] | 10 to 100 µM |
| CCOC(=O)C(CC)c1ccc2c(c1)sc1nc(=O)cc(-c3ccccc3)n12 (stereo not drawn) [Example 29, Ethyl α-ethyl-4-phenyl-2-oxo-2H-pyrimido[2,1-b]benzothiazole-8-acetate] | 0.1 µM |
| CCOC(=O)Cc1ccc2c(c1)sc1nc(=O)cc(C3CCCCC3)n12 [Example 30, Ethyl 4-cyclohexyl-2-oxo-2H-pyrimido[2,1-b]benzothiazole-8-acetate] | 1 to 10 µM |
| CCOC(=O)C(C)c1ccc2c(c1)sc1nc(=O)cc(C3CCCCC3)n12 (stereo not drawn) [Example 31, Ethyl α-methyl-4-cyclohexyl-2-oxo-2H-pyrimido[2,1-b]benzothiazole-8-acetate] | < 10 µM |
| CCCC(C(=O)OCC)c1ccc2c(c1)sc1nc(=O)cc(-c3ccccc3)n12 (stereo not drawn) [Example 32, Ethyl α-propyl-4-phenyl-2-oxo-2H-pyrimido[2,1-b]benzothiazole-8-acetate] | 1 µM |
| CCOC(=O)C(c1ccc2c(c1)sc1nc(=O)cc(-c3ccccc3)n12)C(C)C (stereo not drawn) [Example 33, Ethyl α-isopropyl-4-phenyl-2-oxo-2H-pyrimido[2,1-b]benzothiazole-8-acetate] | 10 to 100 µM |
| CCCCC(C(=O)OCC)c1ccc2c(c1)sc1nc(=O)cc(-c3ccccc3)n12 (stereo not drawn) [Example 34, Ethyl α-butyl-4-phenyl-2-oxo-2H-pyrimido[2,1-b]benzothiazole-8-acetate] | 1 to 10 µM |
| CC(C)OC(=O)C(C)c1ccc2c(c1)sc1nc(=O)cc(-c3ccccc3)n12 (stereo not drawn) [Example 35, Isopropyl α-methyl-4-phenyl-2-oxo-2H-pyrimido[2,1-b]benzothiazole-8-acetate] | 0.1 to 1 µM |
| CCOC(=O)C(C)(C)c1ccc2c(c1)sc1nc(=O)cc(-c3ccccc3)n12 [Example 36, Ethyl α,α-dimethyl-4-phenyl-2-oxo-2H-pyrimido[2,1-b]benzothiazole-8-acetate] | 1 to 10 µM |
| CCOC(=O)C(C)(CC)c1ccc2c(c1)sc1nc(=O)cc(-c3ccccc3)n12 (stereo not drawn) [Example 37, Ethyl α-ethyl-α-methyl-4-phenyl-2-oxo-2H-pyrimido[2,1-b]benzothiazole-8-acetate] | 1 µM |
| CCCC(C)(C(=O)OCC)c1ccc2c(c1)sc1nc(=O)cc(-c3ccccc3)n12 (stereo not drawn) [Example 38, Ethyl α-methyl-α-propyl-4-phenyl-2-oxo-2H-pyrimido[2,1-b]benzothiazole-8-acetate] | 1 µM |
